A word on the IC50: it is the point on the concentration scale where inhibition reaches its midpoint.

The values below come from paper PMC5400620, “Preclinical therapeutic efficacy of a novel blood-brain barrier-penetrant dual PI3K/mTOR inhibitor with preferential response in PI3K/PTEN mutant glioma” (Oncotarget, 2017).

One series deals with p110γ (Homo sapiens, UniProt P48736). Briefly: class I PI3K HTRF assay, p110γ. The format is biochemical. The procedure: (§1) DS7423 inhibits PI3K/mTOR activity likely binding to the ATP binding cleft of these enzymes and was tested against class I PI3K and other kinases using an HTRF assay format and direct measurement of substrate phosphorylation, respectively.
Another series deals with GSC11 GICs. Briefly: GSC11 orthotopic intracranial xenograft efficacy. In kind it is in vivo, nude mice. The conditions noted are these: GSC11 tumor-bearing mice, 6 mg/kg oral; control 47 days; P=0.014. From the text: (§2) Figure 4 DS7423 suppressed tumor growth and prolonged survival in an orthotopic mouse xenograft model U87 glioma cells U87 and GSC11 GICs were used to generate orthotopic xenografts in mouse brains. Tumor-bearing mice received either vehicle or DS7423 at the indicated dose/schedules. Two mice were killed at the indicated time points (2 weeks and 4 weeks) after DS treatment. A. and B. Kaplan–Meier survival plots of tumor-bearing mice in vehicle or DS7423 treatment groups (n = 10). The log-rank method was used to test for a difference between groups. […] Bar, 100 μm.
(§3) 6 to 8-week-old male nude mice were obtained from the MD Anderson breeding facility and used in accordance with the Animal Care and Use Guidelines of MD Anderson Cancer Center. In this study, 5 × 10^5 U87 (PTEN mutant) cells in DMEM/F12 serum-free media (5 μL) and GSC11 (PIK3CA mutant and PTEN mutant) were implanted intracranially into each mouse using a guide-screw system, as described previously. Four days after injection of the tumor cells, mice were randomized into 2 groups (10 animals per group). Mice in-group 1 was given 6 mg/kg DS7423 via oral gavage, and mice in-group 2 were given the vehicle (0.5% methyl cellulose) used for administration of DS (control). […] Mice were monitored daily and euthanized when they became moribund. […]

For a further series, the target named is p110β (Homo sapiens, UniProt P42338). Briefly: class I PI3K HTRF assay, p110β. In kind it is biochemical. The procedure:
as §1
For orientation: TR-FRET usually uses a lanthanide donor and a delayed reading to cut background.

Another series addresses p110δ (Homo sapiens, UniProt O00329). Briefly: class I PI3K HTRF assay, p110δ. In kind it is biochemical. The procedure:
as §1

Another series concerns U87 glioma cells. Briefly: U87 orthotopic intracranial xenograft efficacy. In kind it is in vivo.
Excerpt: as §2, §3

Another series addresses p110α (Homo sapiens, UniProt P42336). Briefly: class I PI3K HTRF assay, p110α. In kind it is biochemical. The procedure:
as §1

In series [1] the target is mixed lineage kinase 1 (MLK1) (Homo sapiens, UniProt P80192). Briefly: kinase panel, direct measurement of substrate phosphorylation, MLK1. In kind it is biochemical. The conditions noted are these: panel of 227 kinases; test concentration not given. The method, then: as §1
Series [2] in a line: pharmacokinetic study in mice, plasma and brain concentrations by LC-MS/MS. The format is in vivo, nude mice. The procedure:
We studied the plasma concentration-time profile of DS following a single PO administration (6 mg/kg) in mice (Figure 1). Plasma concentrations remained generally constant and higher than 2 μmol/L up to 6 hours after treatment. The brain-to-plasma ratio of total concentrations remained unchanged and was approximately 0.1 between 1 and 6 hours after treatment (Figure 1A and 1B). Both plasma and brain DS concentrations decreased at 24 hours after treatment.
Figure 1 A. and B. Plasma and brain concentration-time profile of DS7423 following a single PO administration (6 mg/kg) to nude mice. C. Western blot of mouse brains probed with antibodies against pAkt (Ser473) and pS6 (Ser235/236) in a time profile similar to that shown in A and B. Results are presented as the mean ± SE of six animals in each group.
Mice were implanted with U87 cells intracranially as described previously. Twenty-one days after injection of the tumor cells,mice were randomized into groups. Mice were given a 6 mg/kg oral (PO) dose of DS. Blood samples of approximately 0.15 mL were collected from mice (n = 4 mice per time point) by retro-orbital bleeding in tubes containing K2EDTA as the anticoagulant pre-dose and at 2, 4, 6, and 24 hours post-dose. Plasma was collected and stored at −80°C until analysis. DS concentrations were determined by liquid chromatography-tandem mass spectrometry (LC-MS/MS) following plasma protein precipitation with acetonitrile and injection of the supernatant onto a TSK-GEL ODS-100V column (150 mm × 2 mm, 5 μm particle size). A Shimadzu 10A system (Shimadzu Corp., Kyoto, Japan) coupled with an AB Sciex API4000 triple-quadrupole mass spectrometer (Applied Biosystems, Foster City, CA) was used for the LC-MS/MS assay. […] DS and its internal standard ([^2H8]DS) were analyzed in the multiple reaction monitoring mode using the mass transitions of m/z 521→479 and 529→487, respectively. The lower and upper limits of quantitation were 2 and 5000-ng/mL10 μmol/L, respectively. […] For DS quantitation, mouse brains were homogenized in 3 volumes of 50% acetonitrile. […]

Another series concerns panel of 227 kinases. Briefly: representative panel of 227 kinases in biochemical assays. The conditions noted are these: greater than 50% inhibition only against 2 other kinases. The method, then: as §1

The structures appear in SMILES notation.

Chain of mixed lineage kinase 1 (MLK1) (P80192 whole entry): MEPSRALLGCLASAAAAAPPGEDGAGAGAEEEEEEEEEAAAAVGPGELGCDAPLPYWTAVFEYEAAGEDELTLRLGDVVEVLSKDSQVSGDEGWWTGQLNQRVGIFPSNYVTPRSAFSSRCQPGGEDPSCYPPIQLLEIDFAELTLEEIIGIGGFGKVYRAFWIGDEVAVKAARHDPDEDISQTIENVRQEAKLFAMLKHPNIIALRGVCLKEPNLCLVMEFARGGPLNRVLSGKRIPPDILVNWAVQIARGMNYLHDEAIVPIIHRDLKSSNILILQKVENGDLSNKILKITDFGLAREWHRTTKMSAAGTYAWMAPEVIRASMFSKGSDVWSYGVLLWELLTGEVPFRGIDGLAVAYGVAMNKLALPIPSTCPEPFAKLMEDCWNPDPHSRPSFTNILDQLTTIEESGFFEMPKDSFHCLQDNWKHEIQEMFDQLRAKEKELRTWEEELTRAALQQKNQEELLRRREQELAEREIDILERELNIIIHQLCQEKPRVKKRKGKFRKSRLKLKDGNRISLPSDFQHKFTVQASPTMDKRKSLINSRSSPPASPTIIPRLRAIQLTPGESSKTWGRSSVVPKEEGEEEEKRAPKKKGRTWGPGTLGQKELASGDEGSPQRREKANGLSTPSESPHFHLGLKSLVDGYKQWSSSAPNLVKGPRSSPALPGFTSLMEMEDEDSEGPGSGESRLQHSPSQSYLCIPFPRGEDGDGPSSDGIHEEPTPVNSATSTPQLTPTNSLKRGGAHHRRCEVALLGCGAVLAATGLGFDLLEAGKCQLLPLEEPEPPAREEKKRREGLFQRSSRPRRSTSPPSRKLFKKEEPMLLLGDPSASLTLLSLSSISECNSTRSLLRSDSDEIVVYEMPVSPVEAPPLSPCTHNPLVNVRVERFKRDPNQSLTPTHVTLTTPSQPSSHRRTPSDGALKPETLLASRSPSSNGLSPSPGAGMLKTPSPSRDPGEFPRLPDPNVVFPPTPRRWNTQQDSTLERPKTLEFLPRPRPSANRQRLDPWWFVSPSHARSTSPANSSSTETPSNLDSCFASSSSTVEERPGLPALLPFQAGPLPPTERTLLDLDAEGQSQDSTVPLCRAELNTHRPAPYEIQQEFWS
Chain of p110δ (O00329 whole entry): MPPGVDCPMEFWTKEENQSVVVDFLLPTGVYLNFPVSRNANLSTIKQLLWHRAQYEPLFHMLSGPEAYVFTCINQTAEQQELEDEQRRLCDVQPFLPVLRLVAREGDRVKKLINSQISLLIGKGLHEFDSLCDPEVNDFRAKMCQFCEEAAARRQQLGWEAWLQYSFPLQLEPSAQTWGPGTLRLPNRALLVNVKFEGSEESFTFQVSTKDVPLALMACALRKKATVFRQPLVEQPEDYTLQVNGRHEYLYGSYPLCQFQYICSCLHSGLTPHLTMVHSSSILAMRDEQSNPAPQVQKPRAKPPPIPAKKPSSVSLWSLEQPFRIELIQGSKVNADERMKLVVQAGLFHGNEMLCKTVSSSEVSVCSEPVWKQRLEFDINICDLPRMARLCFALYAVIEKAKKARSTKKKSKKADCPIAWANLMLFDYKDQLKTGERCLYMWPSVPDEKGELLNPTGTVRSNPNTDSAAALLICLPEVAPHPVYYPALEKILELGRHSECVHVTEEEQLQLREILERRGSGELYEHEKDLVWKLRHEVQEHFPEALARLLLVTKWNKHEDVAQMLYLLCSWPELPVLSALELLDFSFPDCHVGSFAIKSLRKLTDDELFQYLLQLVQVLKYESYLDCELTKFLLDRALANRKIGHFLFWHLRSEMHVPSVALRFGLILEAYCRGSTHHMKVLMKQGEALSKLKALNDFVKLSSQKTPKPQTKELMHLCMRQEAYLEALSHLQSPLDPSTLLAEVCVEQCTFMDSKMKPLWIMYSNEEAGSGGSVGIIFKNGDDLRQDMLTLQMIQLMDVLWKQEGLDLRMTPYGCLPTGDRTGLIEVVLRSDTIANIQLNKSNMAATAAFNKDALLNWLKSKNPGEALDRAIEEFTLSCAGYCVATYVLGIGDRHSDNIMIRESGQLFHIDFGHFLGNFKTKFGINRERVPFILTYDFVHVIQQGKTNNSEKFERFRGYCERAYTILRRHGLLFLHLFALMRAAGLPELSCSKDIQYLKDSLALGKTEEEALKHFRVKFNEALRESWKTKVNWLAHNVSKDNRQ
Chain of p110δ (P27986 whole entry partner): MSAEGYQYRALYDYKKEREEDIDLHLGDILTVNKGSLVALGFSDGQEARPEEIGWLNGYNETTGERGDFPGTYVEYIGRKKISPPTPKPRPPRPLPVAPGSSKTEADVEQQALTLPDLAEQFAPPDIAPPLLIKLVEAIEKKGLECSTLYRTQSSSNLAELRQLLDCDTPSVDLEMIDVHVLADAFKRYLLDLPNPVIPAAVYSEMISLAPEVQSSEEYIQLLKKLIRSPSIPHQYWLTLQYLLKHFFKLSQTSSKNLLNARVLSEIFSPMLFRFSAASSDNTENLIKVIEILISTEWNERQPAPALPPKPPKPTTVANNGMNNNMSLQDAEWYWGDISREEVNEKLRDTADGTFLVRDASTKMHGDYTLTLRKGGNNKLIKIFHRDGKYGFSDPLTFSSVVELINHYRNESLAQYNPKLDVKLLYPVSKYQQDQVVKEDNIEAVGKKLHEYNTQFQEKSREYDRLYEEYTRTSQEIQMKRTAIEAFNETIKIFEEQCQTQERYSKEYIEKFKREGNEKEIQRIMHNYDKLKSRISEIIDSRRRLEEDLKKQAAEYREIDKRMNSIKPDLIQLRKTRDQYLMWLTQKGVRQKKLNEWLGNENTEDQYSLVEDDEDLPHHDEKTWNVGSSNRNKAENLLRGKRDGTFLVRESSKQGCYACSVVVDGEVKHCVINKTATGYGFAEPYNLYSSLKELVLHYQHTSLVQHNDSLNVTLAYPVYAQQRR
Chain of p110γ (P48736 whole entry): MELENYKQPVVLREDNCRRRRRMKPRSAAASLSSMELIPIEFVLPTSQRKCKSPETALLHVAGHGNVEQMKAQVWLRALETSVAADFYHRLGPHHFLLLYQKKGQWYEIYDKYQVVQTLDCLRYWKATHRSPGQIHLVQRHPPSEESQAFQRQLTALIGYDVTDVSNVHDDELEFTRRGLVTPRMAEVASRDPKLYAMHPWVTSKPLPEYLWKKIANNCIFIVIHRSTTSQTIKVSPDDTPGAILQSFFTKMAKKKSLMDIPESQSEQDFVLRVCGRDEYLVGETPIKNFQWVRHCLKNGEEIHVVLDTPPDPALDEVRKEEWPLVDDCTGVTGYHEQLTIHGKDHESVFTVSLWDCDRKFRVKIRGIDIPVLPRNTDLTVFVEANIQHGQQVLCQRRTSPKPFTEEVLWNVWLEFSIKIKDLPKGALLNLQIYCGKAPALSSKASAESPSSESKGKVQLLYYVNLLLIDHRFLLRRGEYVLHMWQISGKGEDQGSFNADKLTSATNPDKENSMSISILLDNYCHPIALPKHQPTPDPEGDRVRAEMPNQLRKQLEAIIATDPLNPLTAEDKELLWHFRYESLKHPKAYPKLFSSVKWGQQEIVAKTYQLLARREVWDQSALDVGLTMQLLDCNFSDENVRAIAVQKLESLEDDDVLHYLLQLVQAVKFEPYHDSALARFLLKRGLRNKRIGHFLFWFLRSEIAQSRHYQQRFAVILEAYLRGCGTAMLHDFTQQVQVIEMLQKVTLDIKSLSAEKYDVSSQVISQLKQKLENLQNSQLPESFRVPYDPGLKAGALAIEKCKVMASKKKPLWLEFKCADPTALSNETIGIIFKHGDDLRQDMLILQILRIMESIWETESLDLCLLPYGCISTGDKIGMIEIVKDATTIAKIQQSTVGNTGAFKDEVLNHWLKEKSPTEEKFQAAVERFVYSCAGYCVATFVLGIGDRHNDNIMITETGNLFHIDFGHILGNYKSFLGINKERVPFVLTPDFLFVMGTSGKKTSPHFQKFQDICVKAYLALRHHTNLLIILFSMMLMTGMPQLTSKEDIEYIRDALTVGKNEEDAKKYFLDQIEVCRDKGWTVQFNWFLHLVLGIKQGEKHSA
Chain of p110β (P42338 whole entry): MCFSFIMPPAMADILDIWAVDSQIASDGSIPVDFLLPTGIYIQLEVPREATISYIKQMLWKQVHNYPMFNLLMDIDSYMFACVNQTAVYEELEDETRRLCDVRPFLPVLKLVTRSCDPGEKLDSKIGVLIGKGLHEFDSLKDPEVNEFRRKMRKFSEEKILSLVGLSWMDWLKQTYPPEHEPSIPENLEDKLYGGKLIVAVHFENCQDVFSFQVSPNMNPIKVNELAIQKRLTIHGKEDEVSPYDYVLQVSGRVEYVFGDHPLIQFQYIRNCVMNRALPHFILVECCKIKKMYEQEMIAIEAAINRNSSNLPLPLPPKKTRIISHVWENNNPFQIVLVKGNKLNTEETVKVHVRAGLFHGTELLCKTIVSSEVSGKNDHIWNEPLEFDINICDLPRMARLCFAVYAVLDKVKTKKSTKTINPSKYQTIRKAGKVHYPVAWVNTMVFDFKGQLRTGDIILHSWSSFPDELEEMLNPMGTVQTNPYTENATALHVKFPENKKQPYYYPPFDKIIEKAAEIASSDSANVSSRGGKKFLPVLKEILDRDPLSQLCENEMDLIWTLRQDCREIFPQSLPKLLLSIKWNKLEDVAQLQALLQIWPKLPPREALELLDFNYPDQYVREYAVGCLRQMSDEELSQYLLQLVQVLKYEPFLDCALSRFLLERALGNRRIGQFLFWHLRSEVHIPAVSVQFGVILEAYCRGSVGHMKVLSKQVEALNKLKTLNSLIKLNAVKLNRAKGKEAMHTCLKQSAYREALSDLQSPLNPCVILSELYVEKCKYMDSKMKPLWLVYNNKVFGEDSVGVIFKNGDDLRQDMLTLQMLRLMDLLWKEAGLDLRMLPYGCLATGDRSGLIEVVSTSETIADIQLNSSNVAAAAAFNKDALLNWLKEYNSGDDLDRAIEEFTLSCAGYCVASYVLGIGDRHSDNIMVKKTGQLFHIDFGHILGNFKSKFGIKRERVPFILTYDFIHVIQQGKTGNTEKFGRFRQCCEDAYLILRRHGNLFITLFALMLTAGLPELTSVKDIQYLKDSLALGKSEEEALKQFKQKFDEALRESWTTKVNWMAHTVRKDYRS
Chain of p110β (P27986 whole entry partner): as the sequence (P27986 whole entry partner) above

For the molecule `CC(=O)N1CCN(c2nc3c(N4CCOCC4)nc(-c4cnc(N)nc4)nc3n2CC(F)(F)F)C[C@H]1C` [DS, 1-{(2R)-4-[2-(2-Aminopyrimidin-5-yl)-6-(morpholin-4-yl)-9-(2,2,2-trifluoroethyl)-9H-purin-8-yl]-2-methylpiperazin-1-yl}ethan-1-one], the IC50 is 249 nM at p110γ, 1140 nM on p110β, 262 nM on p110δ and 17 nM on p110α. Also, the median survival in the series on GSC11 GICs amounted to 61 days. Further, the median survival time with U87 glioma cells (U87 tumor-bearing mice, 6 mg/kg oral, control 30 days, P=0.025) amounted to 46 days. In the series with U87 glioma cells (treated mice), the “toxic effects in mice with intracranial xenograft tumors” value was “without causing any obvious toxic effects”. The “inhibition of MLK1” value in series [1] is on record as “greater than 50%”. Besides, the “concentration achievable in the mouse brains” value in series [2] is listed as 200 nM. Also, the Kp at 6 h in series [2] (nude, mouse, brain and plasma, single PO 6 mg/kg, between 1 and 6 hours after treatment, read-out: brain-to-plasma ratio of total concentrations) is about 0.1. For the same molecule, the plasma concentration entry in series [2] (single PO 6 mg/kg, up to 6 hours after treatment) is listed as “higher than 2 μmol/L”. Besides, in the series with panel of 227 kinases, the “inhibition of a representative panel of 227 kinases” value was “poorly inhibited”.
